The results in this text go back to patent publication US5756510A, “Benzamide analogs useful as PARP (ADP-ribosyltransferase, ADPRT) DNA repair enzyme inhibitors” (Newcastle University Ventures Limited, priority 1994, dated 1998).

The target in this series is T1, PARP (Mus musculus, UniProt P11103).
T1 construct: endogenous in cells; host or cells: L1210 murine leukaemia cells, permeabilised by hypotonic buffer and cold shock
Briefly: PARP inhibition assay ([32P]-NAD incorporation into TCA-precipitated poly(ADP-ribose) in permeabilised L1210 cells, oligonucleotide activated). Type of series: biochemical, L1210 murine leukaemia cells. The source says:
In principle, the PARP assay used relies upon activating endogenous PARP (as hereinafter described) in cells containing exogenous [^32 P]-NAD^+ introduced therein by suspending the cells in a solution of [^32 P]-NAD^+ to which they have been rendered permeable in an initial pretreatment step. The poly(ADP-ribose) which is then synthesised by the enzyme can be precipitated by trichloracetic acid (TCA) and the amount of radio-labelled ^32 p incorporated therein measured, e.g. using a scintillation counter, to give a measure of the activity of the PARP under the particular conditions of the experiment. By repeating the experiment following the same procedure, and under the same conditions, in the presence of each compound to be tested the reduction in enzyme activity, representative of the inhibitory effect of the test compound, can then be ascertained from the reduction, if any, of the amount of [^32 P] measured in the TCA precipitated poly(ADP-ribose).
Thus, with a range of different compounds a set of comparative values for inhibitory activity can be obtained.
In practice, L1210 murine leukaemia cells were used as the source of the PARP enzyme after being rendered permeable to exogenous [^32 P]NAD by exposure to hypotonic buffer and cold shock. […] This oligonucleotide sequence snaps back on itself to form a double-stranded molecule with a single blunt end and provides an effective substrate for activation of PARP.
The experimental protocol adopted, in which a synthetic oligonucleotide as mentioned above is introduced as a specific activator of PARP, discriminates between PARP and other mono-ADP-ribosyltransferases in the cells.
The oligonucleotide having the palindromic sequence […], synthesised by conventional means, was vacuum dried and stored as pellets in a freezer. Before use, it was made up to 200 μg/ml in 10 mM Tris/HCl, pH 7.8, with each pellet being dissolved completely in […] of buffer. The solution was then heated to 60° C. in a water bath for 15 minutes, and allowed to cool slowly to ensure correct reannealing. After adding 9.5 ml of buffer, the concentration was checked by measuring the optical density of a diluted sample at 260 nm. The main solution was then diluted to a concentration of 200 μg/ml and stored in 500 μl aliquots in a freezer, ready for use.
The L1210 cells used as the source of the PARP enzyme were maintained as a suspension culture in RPMI medium+10% foetal bovine serum+glutamine and antibiotics (penicillin and streptomycin). HEPES and sodium bicarbonate were also added, and the cells were seeded in 100 ml of medium such that there would be a concentration of approximately 8×10^5 /ml at the time of carrying out an assay.
The solubility of the compound was then checked by adding a quantity of the DMSO solution to a quantity of the isotonic buffer, in the required final proportions that were to be used in carrying out the assay, and after an interval the solution was examined under a microscope for any signs of crystals forming.
A desired quantity of the cells, ascertained by counting with a haemocytometer, was then centrifuged (1500 rpm in a "Europa" model 24M centrifuge for 5 minutes), the supernatant removed, and the pellets obtained were resuspended in 20 ml Dul A at 4° C. before centrifuging again at 1500 rpm and 4° C. After again removing the supernatant, the cells were resuspended at a concentration of 3×10^7 cells/ml in ice cold hypotonic buffer and left for 30 minutes on ice. Nine volumes were then added of ice cold isotonic buffer, and the cells, now rendered permeable to exogenous NAD^+, were then used within the next hour for carrying out an assay.

Setting [1] is: 10 μM, read-out: % Inhibition (PARP).
Setting [2] is: 30 μM, read-out: % Inhibition (PARP).
The mark [3] stands for this setting: 100 μM, read-out: % Inhibition (PARP).
[4] abbreviates: read-out: % Inhibition (PARP), 10 μM.
[5] abbreviates: read-out: % Inhibition (PARP), 30 μM.
Where [6] appears, read: unit printed broken, attached to the next cell.

The inhibition is the share of the control response that was lost under treatment. The IC50 is the midpoint of a concentration-inhibition curve. A lower IC50 goes with greater potency in that assay.

Where two headings read alike, the source gives them in different places.

T1 sequence (P11103 whole entry): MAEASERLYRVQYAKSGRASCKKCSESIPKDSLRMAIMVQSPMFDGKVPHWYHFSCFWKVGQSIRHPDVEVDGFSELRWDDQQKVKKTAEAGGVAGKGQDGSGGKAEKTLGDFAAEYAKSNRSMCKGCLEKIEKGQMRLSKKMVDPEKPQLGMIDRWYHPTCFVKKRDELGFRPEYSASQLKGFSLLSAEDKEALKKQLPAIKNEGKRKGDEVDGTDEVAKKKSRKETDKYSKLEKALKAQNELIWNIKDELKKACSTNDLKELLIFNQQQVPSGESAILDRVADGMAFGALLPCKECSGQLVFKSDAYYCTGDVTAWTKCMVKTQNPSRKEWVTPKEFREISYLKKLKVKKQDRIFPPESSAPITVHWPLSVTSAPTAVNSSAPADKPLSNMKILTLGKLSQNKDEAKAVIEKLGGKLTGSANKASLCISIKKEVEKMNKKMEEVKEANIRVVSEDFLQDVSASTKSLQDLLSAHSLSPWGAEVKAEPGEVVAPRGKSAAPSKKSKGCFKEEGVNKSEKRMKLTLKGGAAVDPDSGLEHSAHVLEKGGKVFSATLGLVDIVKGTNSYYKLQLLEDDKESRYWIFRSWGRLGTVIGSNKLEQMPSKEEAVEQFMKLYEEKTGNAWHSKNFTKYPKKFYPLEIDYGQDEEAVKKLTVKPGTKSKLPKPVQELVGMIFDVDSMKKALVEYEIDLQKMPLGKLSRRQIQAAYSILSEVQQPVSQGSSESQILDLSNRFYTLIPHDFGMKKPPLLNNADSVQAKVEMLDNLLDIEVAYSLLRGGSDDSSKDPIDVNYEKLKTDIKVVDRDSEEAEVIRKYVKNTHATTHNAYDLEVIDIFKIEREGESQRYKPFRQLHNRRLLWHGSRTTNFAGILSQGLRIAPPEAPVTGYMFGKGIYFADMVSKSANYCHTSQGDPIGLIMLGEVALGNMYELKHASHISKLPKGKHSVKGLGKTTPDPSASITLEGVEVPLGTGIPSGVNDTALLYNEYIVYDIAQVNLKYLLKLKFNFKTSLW

As to `NC(=O)c1cccc(O)c1` [3-hydroxybenzamide, reference compound], the inhibition at 10 µM under setting [1] was 35%. For the same compound, the inhibition at 30 µM under setting [2] was found to be 59%. For the same compound, under setting [3], the inhibition at 100 µM is 81%.

Take `COc1cccc(C(N)=O)c1` [3-methoxybenzamide, reference compound]: the inhibition at 10 µM under setting [1] amounted to 55%. For the same compound, under setting [2], the inhibition at 30 µM was determined as 78%. The inhibition at 100 µM under setting [3] was found to be 89%.

Take `NC(=O)c1cccc(OCc2ccccc2)c1` [NU1005, 3-benzyloxybenzamide]: under setting [3], the inhibition at 100 µM is 76%. The inhibition at 10 µM under setting [4] stood at 34%. Under setting [5], the inhibition at 30 µM worked out at 60%.

In the case of `[N-]=[N+]=Nc1ccc(COc2cccc(C(N)=O)c2)cc1` [NU1013, 3-(4-Azidobenzyloxy)benzamide], under setting [4], the inhibition at 10 µM was found to be 49%. For the same compound, the inhibition at 30 µM under setting [5] was found to be 28%. Moreover, under “read-out: % Inhibition (PARP), 100 μM”, the inhibition at 100 µM was determined as 43%.

In the case of `NC(=O)c1cccc(OCc2ccc(N)cc2)c1` [NU1016, 3-(4-aminobenzyloxy)benzamide], the inhibition at 10 µM under setting [1] came to 40%. Further, under setting [2], the inhibition at 30 µM stood at 66%. Moreover, under setting [3], the inhibition at 100 µM came out at 84%.

Regarding `NC(=O)c1cccc(OCCCCCBr)c1` [NU1019, 3-(5-Bromopentyloxy)benzamide], under setting [2], the inhibition at 30 µM is 54%. Further, the inhibition at 100 µM under setting [3] was 81%.

For the compound `NC(=O)c1cccc(OCc2ccc3c(c2)OCO3)c1` [NU1020, 3-(Piperonyloxy)benzamide], the inhibition at 10 µM under setting [1] was 51%. Also, under setting [2], the inhibition at 30 µM amounted to 70%. In addition, the inhibition at 100 µM under setting [3] is 93%.

As to `NC(=O)c1cccc(OCCCCCCCCn2cnc3c(N)ncnc32)c1` [NU1022, 3-(8-adenos-9-yloctyloxy)benzamide], the inhibition at 10 µM under setting [1] is 30%.

Take `NC(=O)c1cccc(OCCCCCn2cnc3c(Cl)ncnc32)c1` [NU1023, 3-[5-(6-Chloropurin-9-yl)pentyloxy]benzamide]: the inhibition at 10 µM under setting [1] came to 26%. For the same compound, the inhibition at 30 µM under setting [2] worked out at 45%. Besides, under setting [3], the inhibition at 100 µM stood at 71%.

For the compound `NC(=O)c1cccc(OCCCCCn2cnc3c(N)ncnc32)c1` [NU1024, 3-(5-Adenos-9-ylpentyloxy)benzamide], the inhibition at 10 µM under setting [1] came to 16%. Under setting [2], the inhibition at 30 µM was 42%. Also, the inhibition at 100 µM under setting [3] was 67%.

As to `O=c1[nH]cnc2c(O)cccc12` [NU1026, 8-hydroxyquinazolin-4-[3H]one], the “PARP inhibitory activity in words” value is on record as “quite strong PARP inhibitory activity”. In addition, where the note is “0.5 μM”, the inhibition at 0.5 µM came out at 18%. Moreover, the inhibition at 1 µM (1 μM (1.0 μM)) was 38%. In addition, the inhibition at 2 µM (2.0 μM) was determined as 54%. Moreover, the inhibition at 10 µM under setting [1] was determined as 78%. Moreover, the inhibition at 30 µM under setting [2] was 87%. In addition, the inhibition at 100 µM under setting [3] stood at 95%. Under setting [6], this compound registered an IC50 of 2000 nM.

Turning to `NC(=O)c1cccc(OCCCCCCCCCCCCn2cnc3c(N)ncnc32)c1` [NU1029, 3-(12-adenos-9-yldodecyloxy)benzamide], the inhibition at 10 µM under setting [1] turned out to be 26%. In addition, the inhibition at 30 µM under setting [2] amounted to 51%. Also, under setting [3], the inhibition at 100 µM was 74%.

Turning to `CC(=O)Nc1ccc(COc2cccc(C(N)=O)c2)cc1` [NU1030, 3-(N-acetyl-4-aminobenzyloxy)benzamide], the inhibition at 10 µM under setting [1] came out at 49%. Moreover, the inhibition at 30 µM under setting [2] was 70%. Further, under setting [3], the inhibition at 100 µM turned out to be 84%.

Consider `C=CCOc1cccc(C(N)=O)c1` [NU1031, 3-Allyloxybenzamide], for which the inhibition at 10 µM under setting [1] was 21%. For the same compound, under setting [2], the inhibition at 30 µM amounted to 58%. Moreover, under setting [3], the inhibition at 100 µM came to 80%.

Consider `NC(=O)c1cccc2c1OCO2` [NU1034, 2,3-methylenedioxy benzamide], for which the inhibition at 10 µM under setting [1] worked out at 66%. The inhibition at 100 µM under setting [3] is 94%. This compound also had an IC50 under setting [6] of 5300 nM.

Take `NC(=O)c1cccc(OCc2ccc(C(F)(F)F)cc2)c1` [NU1036, 3-(4-Trifluoromethylbenzyloxy)benzamide]: the inhibition at 10 µM under setting [1] stood at 3%. Also, the inhibition at 30 µM under setting [2] was 13%. Also, the inhibition at 100 µM under setting [3] came to 10%.

`CCCCOc1cccc(C(N)=O)c1` [NU1038, 3-butoxybenzamide]: under setting [1], the inhibition at 10 µM is 23%. Further, the inhibition at 30 µM under setting [2] amounted to 50%. The inhibition at 100 µM under setting [3] was 78%.

As for `CCCCCOc1cccc(C(N)=O)c1` [NU1039, 3-pentyloxybenzamide], the inhibition at 10 µM under setting [1] came to 18%. Also, the inhibition at 30 µM under setting [2] was 45%. Moreover, the inhibition at 100 µM under setting [3] worked out at 66%.

Take `CC(C)(C)c1nc2c(C(N)=O)cccc2o1` [NU1040, 2-t-butylbenzoxazole-4-carboxamide]: the “PARP inhibitory activity in words” value is “relatively high inhibitory activity even at low concentrations”. Besides, the inhibition at 10 µM under setting [1] stood at 87%. The inhibition at 30 µM under setting [2] was determined as 88%. In addition, the inhibition at 100 µM under setting [3] stood at 93%. The same compound had an IC50 under setting [6] of 8400 nM.

Take `NC(=O)c1cccc(OCCc2ccccc2)c1` [NU1048, 3-(Phenethyl)oxybenzamide]: the inhibition at 10 µM under setting [1] was 30%. Also, the inhibition at 30 µM under setting [2] worked out at 50%. Further, under setting [3], the inhibition at 100 µM amounted to 72%.

Take `NC(=O)c1cccc2oc(-c3ccccc3)nc12` [NU1051, 2-Phenylbenzoxazole-4-carboxamide]: the IC50 is 2100 nM and the “PARP inhibitory activity in words” value is recorded as “relatively high inhibitory activity even at low concentrations”. Moreover, the inhibition at 10 µM under setting [1] was determined as 82%.

Consider `COc1ccc(-c2nc3c(C(N)=O)cccc3o2)cc1` [NU1054, 2-(4-Methoxyphenyl)benzoxazole-4-carboxamide], for which the IC50 was 1100 nM and the “PARP inhibitory activity in words” value is on record as “relatively high inhibitory activity even at low concentrations”.

As to `Cc1nc2c(C(N)=O)cccc2o1` [NU1056, 2-Methylbenzoxazole-4-carboxamide], the IC50 stood at 9500 nM and the “PARP inhibitory activity in words” value is listed as “relatively high inhibitory activity even at low concentrations”.

Regarding `COc1cccc2c(=O)[nH]c(C)nc12` [NU1063, 8-Methoxy-2-methylquinazolin-4-[3H]-one], the IC50 was found to be 780 nM and the “PARP inhibitory activity in words” value is recorded as “potent PARP inhibitors”.

Compound `COc1cccc2c(=O)[nH]c(-c3ccccc3)nc12` [NU1065, 8-Methoxy-2-phenylquinazolin-4-[3H]-one] displayed an IC50 of 4200 nM.

For `O=c1[nH]c(-c2ccccc2)nc2c(O)cccc12` [NU1068, 8-Hydroxy-2-phenylquinazolin-4-[3H]-one], the IC50 is 530 nM and the “PARP inhibitory activity in words” value is listed as “potent PARP inhibitors”.

For `Cc1nc2c(C)cccc2c(=O)[nH]1` [NU1069, 2,8-Dimethylquinazolin-4-[3H]-one], the IC50 came to 200 nM and the “PARP inhibitory activity in words” value was “potent PARP inhibitors”.

In the case of “CGGAATTCCG: small synthetic single strand oligonucleotide having the palindromic sequence CGGAATTCCG (chemistry not given here) [reference compound]”, the “activation of PARP in words” value is “potent activator of the enzyme”.
